# Source: patent US10596145B2, “Heterocyclic flavone derivatives, compositions, and methods related thereto” (Emory University, priority 2012, dated 2020)
# “Also recorded” adds a separate entry of the source.
# How the values were obtained:
# TrkB [1] = molecular target: T1, TrkB (Mus musculus, UniProt P15209); assay: TrkB phosphorylation in mouse brain after oral administration (immunoblotting, immunohistochemistry); assay type: in vivo
# T1 construct: from tissue; host or cells: mouse brain (hippocampus, cortex), C57BL/6
# T1 sequence (P15209 32-821): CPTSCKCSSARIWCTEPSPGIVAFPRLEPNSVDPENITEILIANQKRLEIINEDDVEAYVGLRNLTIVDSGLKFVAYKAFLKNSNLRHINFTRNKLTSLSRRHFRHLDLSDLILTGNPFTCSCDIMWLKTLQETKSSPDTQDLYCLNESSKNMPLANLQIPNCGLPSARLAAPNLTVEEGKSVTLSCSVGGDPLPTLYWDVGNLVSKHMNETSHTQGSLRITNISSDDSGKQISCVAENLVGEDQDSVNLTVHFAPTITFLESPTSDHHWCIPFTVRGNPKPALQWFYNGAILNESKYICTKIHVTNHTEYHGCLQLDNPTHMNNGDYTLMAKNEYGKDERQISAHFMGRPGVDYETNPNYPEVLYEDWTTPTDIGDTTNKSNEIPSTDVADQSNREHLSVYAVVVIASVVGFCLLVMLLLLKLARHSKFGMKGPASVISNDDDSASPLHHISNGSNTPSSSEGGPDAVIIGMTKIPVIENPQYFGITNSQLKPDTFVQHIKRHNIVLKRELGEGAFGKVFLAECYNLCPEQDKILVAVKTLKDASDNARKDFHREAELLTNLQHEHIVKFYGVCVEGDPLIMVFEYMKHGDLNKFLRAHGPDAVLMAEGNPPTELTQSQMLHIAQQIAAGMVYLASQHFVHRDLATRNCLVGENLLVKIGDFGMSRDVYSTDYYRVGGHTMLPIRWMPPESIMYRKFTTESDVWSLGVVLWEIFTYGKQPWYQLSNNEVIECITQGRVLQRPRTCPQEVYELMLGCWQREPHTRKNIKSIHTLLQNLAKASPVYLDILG
# Method: One mg/kg of various indicated compounds were orally administrated into C57 BL/6J mice and TrkB phosphorylation and its downstream signaling cascades including Akt and MAPK in the hippocampus of mouse brain were analyzed by immunoblotting at 4 h. […] The downstream p-Akt and p-MAPK activity coupled to the TrkB activation patterns.
# Time course assay with 4′-dimethylamino-7,8-imidazole flavone. One mg/kg of compound (i) and compound (m) were orally administrated into C57 BL/6J mice and TrkB phosphorylation and its downstream signaling cascades including Akt in mouse brain were analyzed by immunoblotting at various time points. TrkB activation by compound m peaked at 4 h, whereas the maximal TrkB activation by compound i in mouse brain occurred at 1-2 h. Arrows indicate the p-TrkB in mature glycosylated or unglycosylated forms (top panels). The downstream Akt activation pattern tightly correlated with the upstream TrkB activation.
# (§1) Male C57BL/6 mice aged of two months were administrated orally with 4′-DMA-7,8-DHF derivatives at a single dose of 1 mg/kg for 4 h. The control mice were injected with saline. The mice were sacrificed and brains were homogenated and ultracentrafuged. The supernatant (40 μg) was employed for SDS-PAGE and immunoblotting analysis with indicated antibodies, respectively. Male C57BL/6 mice aged of two months were administrated orally with compound (i) or (m) at the dose of 5 mg/kg/day each and compound o or p at the dose of 2.5 mg/kg/day each for 21 days. BrdU (100 mg/kg) was i. p. injected two hours before the TrkB agonist treated animals were sacrificed and the hippocampal section lysates were analyzed by immunoblotting with p-TrkB and total TrkB antibodies, p-AKT ELISA.
# Brain tissues were fixed in 4% paraformaldehyde overnight followed by paraffin embedding. Sections of 6 μm were cut. For immunohistochemical staining, brain sections were deparaffinized in xylene and rehydrated in graded alcohols. Endogenous peroxidase activity was blocked by 3% hydrogen peroxide for 5 min and all slides were boiled in 10 mM sodium citrate buffer (pH 6.0) for 10 min. Phosphorylated TrkB 816 and TrkB were detected using specific antibodies. Paraffin section were deparaffinized in xylene and rehydrated gradient ethanol solution. Samples were boiled in 10 mM sodium citrate buffer for 20 min for antigen retrieval purpose. Brain sections were incubated with anti-TrkB (BD Biosciences, San Jose, Calif.) 1:50, p-TrkB 1:300 dilution. Secondary antibody was applied using anti-rabbit-Alexa 594 (red), anti-mouse-fluorescein isothiocyanate (FITC) (green). DAPI (blue) was used for nuclear staining.
# Akt = assay: Downstream Akt activation in mouse brain (p-Akt immunoblotting, p-Akt 473 ELISA); assay type: in vivo; conditions: 1 mg/kg oral
# Method: PathScan Phospho-Akt1 (Ser473) Sandwich ELISA kit was purchased from Cell Signaling (Cat. #7160). 100 μl sample in sample diluent (supplied in the kit) was added to each well and incubated overnight at 4° C. After 4× wash with 200 ul wash buffer (supplied in the kit), 100 ul/well detection antibody was added and incubated for 1 hour at 37° C. After 4× wash, 100 μl of HRP-linked secondary antibody (supplied in the kit) was added and incubated for 30 minutes at 37° C. After a final wash, 100 μl of TMB substrate was added to each well and incubated for 10 minutes at 37° C. The reaction was stopped by adding 100 μl/well stop solution. Record the values of each well using microplate reader at 450 nm and 650 nm. The optical density was determined by the subtraction of the reading at 650 nm from the reading s at 450 nm.
# as §1
# C57BL/6J mice [2] = assay: Locomotor activity assay; assay type: in vivo, mouse; conditions: 5 mg/kg oral, 21 days, tested at day 22
# Method: The above drug-treated mice were subjected locomotor activity at day 22. […] Data are presented as mean±SEM.
# Locomotor activity was assessed using an automated system (San Diego Instruments, La Jolla, Calif., USA) with photobeams that recorded ambulations (consecutive beam breaks). Drug-treated mice were placed in the locomotor chambers, and their activity was recorded for 2 h with 30 min interval.
# C57BL/6J mice [3] = assay: Forced swim test; assay type: in vivo, mouse; conditions: 5 mg/kg oral once a day, 3 weeks
# Method: Male C57BL/6J mice (6 mice/group) were orally administrated by gavage with 5 mg/kg compound (m) or compound (i) and vehicle solvent saline for 21 days and subjected to a forced swim test (6 min, immobility recorded in the last 4 min). Data are presented as mean±SEM. (n=6, ***P<0.0001 vs vehicle, Student t-test).
# Forced swim test. Male C57BL/6J mice (8 mice/group) were orally administrated by gavage with 2.5 mg/kg compound o or compound p and vehicle solvent saline for 21 days and subjected to a forced swim test (6 min, immobility recorded in the last 4 min). […] Data are presented as mean±SEM.
# Adult male mice (2-3 months old) were randomly submitted to a forced swim test without a preswim. Test compounds were orally administrated by gavage for 21 days. The mice were allowed to adapt to the test room for 2 days. The mice were placed in a clear glass cylinder with a diameter of 16 cm, half-filled with clear water at 24° C.
# TrkB [4] = molecular target: T2, TrkB (Rattus norvegicus, UniProt Q63604); assay: TrkB activation in primary cortical neurons (immunoblotting); assay type: cell-based; conditions: 500 nM, 15 min
# T2 construct: endogenous in cells; host or cells: primary cortical neurons from E17 rat embryos
# T2 sequence (Q63604 32-821): as the sequence (P15209 32-821) above, with T3M, S9T, A10T, V32I, R63K, S84G, M153T, L185I, S394T, S770N counted along it
# Method: Primary cortical cultures from E17 rat embryos were treated with 500 nM of various synthetic flavone derivatives for 15 min. The cell lysates (20 μg) were analyzed by the immunoblotting.
# Rat primary neurons were treated with 500 nM various indicated compounds from 15 min. The neuronal lysates ([…]) were analyzed with various antibodies.
# 500 nM of different synthetic compounds were added to DIV 7 neurons for 15 min. The cell lysates were analyzed by immunoblotting with indicated p-Akt 473 antibodies.
# Replacing the 3′-dimethylamino group or 4′-morpholino group was tested for TrkB agonistic activity. To compare the TrkB activation by these compounds, primary cortical cultures were prepared and treated them with 500 nM of various compounds for 15 min and collected the cell lysates. […] The p-Akt ELISA analysis results were similar to the TrkB activation pattern (FIG. 2B, lower panel).
# TrkA = molecular target: T3, TrkA (Mus musculus, UniProt Q3UFB7); assay: TrkA activation in mouse brain (anti-p-TrkA 794 immunoblotting); assay type: in vivo; conditions: 5 mg/kg/day oral, chronically treated mice
# T3 construct: from tissue; host or cells: mouse brain lysates of chronically treated C57BL/6J mice
# T3 sequence (Q3UFB7 34-799): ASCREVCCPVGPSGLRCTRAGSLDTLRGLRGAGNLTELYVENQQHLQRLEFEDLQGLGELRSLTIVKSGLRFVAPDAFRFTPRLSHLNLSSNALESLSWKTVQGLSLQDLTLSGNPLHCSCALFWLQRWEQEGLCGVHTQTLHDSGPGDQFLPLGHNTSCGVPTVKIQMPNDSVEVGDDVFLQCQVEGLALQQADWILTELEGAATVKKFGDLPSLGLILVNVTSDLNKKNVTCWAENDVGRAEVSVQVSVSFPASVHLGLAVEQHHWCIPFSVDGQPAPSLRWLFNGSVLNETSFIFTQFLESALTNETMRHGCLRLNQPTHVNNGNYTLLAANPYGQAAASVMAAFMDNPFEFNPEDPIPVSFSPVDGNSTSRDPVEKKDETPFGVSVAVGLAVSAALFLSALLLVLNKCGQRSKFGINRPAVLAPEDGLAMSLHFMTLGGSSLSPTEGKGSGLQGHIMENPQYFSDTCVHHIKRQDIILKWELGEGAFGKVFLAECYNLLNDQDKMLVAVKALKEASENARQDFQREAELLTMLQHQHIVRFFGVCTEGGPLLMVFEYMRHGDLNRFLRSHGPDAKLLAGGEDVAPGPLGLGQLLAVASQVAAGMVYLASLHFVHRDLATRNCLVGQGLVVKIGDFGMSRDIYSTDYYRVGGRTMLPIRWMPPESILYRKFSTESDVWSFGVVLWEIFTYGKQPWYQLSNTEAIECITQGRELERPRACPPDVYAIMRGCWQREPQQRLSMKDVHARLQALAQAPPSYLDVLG
# Method: The brain lysates from above chronically treated mice were analyzed by immunoblotting with anti-p-TrkA 794 and p-TrkB 816.
# as §1
smiles,measurement,setting,value
"CN(C)c1ccc(-c2cc(=O)c3ccc4nc[nH]c4c3o2)cc1 [compound m, 8-(4-(dimethylamino)phenyl)chromeno[7,8-d]imidazol-6(1H)-one]",TrkB activation in mouse brain,"TrkB [1]; 1 mg/kg oral, hippocampus, at 4 h",robustly activated TrkB; also recorded: strongest TrkB stimulatory effect
same,time at which TrkB activation fades away,"TrkB [1]; 1 mg/kg oral, time course",16 h
same,time of peak TrkB activation in mouse brain,"TrkB [1]; 1 mg/kg oral, time course",4 h
same,TrkB phosphorylation after chronic treatment,"TrkB [1]; 5 mg/kg/day oral, 3 weeks, cortex and hippocampus",escalated TrkB phosphorylation; also recorded: stronger effect than compound i
same,downstream p-Akt and p-MAPK signalings,Akt; at 4 h,strongly activated
same,p-Akt signal elevation compared to the control at peak,Akt; at 8 h,about 250%
same,time of peak p-Akt activation (p-Akt ELISA),Akt; time course,8 h
same,locomotor activity,C57BL/6J mice [2],highly augmented the locomotor activity; also recorded: substantially augmented locomoter activity; also recorded: significantly increased the locomotor activity
same,immobility in forced swim test,C57BL/6J mice [3],decreased the immobility in FST; also recorded: significantly reduced the immobility; also recorded: more robust than that of compound i
same,TrkB activation (p-TrkB immunoblotting),TrkB [4],"stronger effect in triggering TrkB activation than compound 4′-DMA-7,8-DHF"
same,TrkB activation (p-TrkB immunoblotting),"TrkB [4]; listed as 4′-Dimethylamino-7,8-imidazole flavone",stronger TrkB stimulatory activity than compound a
same,TrkA activation in mouse brain,TrkA,not TrkA
